Results as given in PubChem BioAssay (NCI).
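Growth conditions: 96-well plates. Treatment: test compound, 48 hours, 5 concentrations. Analysis: linear interpolation between bracketing concentrations; unreached endpoints set to highest concentration. TGI: total growth inhibition.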

Experiments:
Test in all cases: DTP human tumour cell line panel, 48 h
786-0 renal = tested on: 786-0 renal
A498 renal = tested on: A498 renal
A549 NSCLC = tested on: A549 NSCLC
ACHN renal = tested on: ACHN renal
CAKI-1 renal = tested on: CAKI-1 renal
CCRF-CEM leukemia = tested on: CCRF-CEM leukemia
COLO 205 colon = tested on: COLO 205 colon
DLD-1 colon = tested on: DLD-1 colon
DMS 114 small cell lung = tested on: DMS 114 small cell lung
DMS 273 small cell lung = tested on: DMS 273 small cell lung
EKVX NSCLC = tested on: EKVX NSCLC
HCC-2998 colon = tested on: HCC-2998 colon
HCT-116 colon = tested on: HCT-116 colon
HL-60(TB) leukemia = tested on: HL-60(TB) leukemia
HOP-18 NSCLC = tested on: HOP-18 NSCLC
HOP-62 NSCLC = tested on: HOP-62 NSCLC
HOP-92 NSCLC = tested on: HOP-92 NSCLC
HT29 colon = tested on: HT29 colon
IGROV1 ovarian = tested on: IGROV1 ovarian
K-562 leukemia = tested on: K-562 leukemia
KM12 colon = tested on: KM12 colon
KM20L2 colon = tested on: KM20L2 colon
LOX IMVI melanoma = tested on: LOX IMVI melanoma
LXFL 529 NSCLC = tested on: LXFL 529 NSCLC
M14 melanoma = tested on: M14 melanoma
M19-MEL melanoma = tested on: M19-MEL melanoma
MALME-3M melanoma = tested on: MALME-3M melanoma
MOLT-4 leukemia = tested on: MOLT-4 leukemia
NCI-H226 lung = tested on: NCI-H226 lung
NCI-H23 lung = tested on: NCI-H23 lung
NCI-H460 lung = tested on: NCI-H460 lung
NCI-H522 lung = tested on: NCI-H522 lung
OVCAR-3 ovarian = tested on: OVCAR-3 ovarian
OVCAR-4 ovarian = tested on: OVCAR-4 ovarian
OVCAR-5 ovarian = tested on: OVCAR-5 ovarian
OVCAR-8 ovarian = tested on: OVCAR-8 ovarian
RPMI-8226 leukemia = tested on: RPMI-8226 leukemia
RXF 393 renal = tested on: RXF 393 renal
RXF-631 renal = tested on: RXF-631 renal
SF-268 CNS = tested on: SF-268 CNS
SF-295 CNS = tested on: SF-295 CNS
SF-539 CNS = tested on: SF-539 CNS
SK-MEL-2 melanoma = tested on: SK-MEL-2 melanoma
SK-MEL-28 melanoma = tested on: SK-MEL-28 melanoma
SK-MEL-5 melanoma = tested on: SK-MEL-5 melanoma
SK-OV-3 ovarian = tested on: SK-OV-3 ovarian
SN12C renal = tested on: SN12C renal
SNB-19 CNS = tested on: SNB-19 CNS
SNB-75 CNS = tested on: SNB-75 CNS
SR leukemia = tested on: SR leukemia
SW-620 colon = tested on: SW-620 colon
TK-10 renal = tested on: TK-10 renal
U251 CNS = tested on: U251 CNS
UACC-257 melanoma = tested on: UACC-257 melanoma
UACC-62 melanoma = tested on: UACC-62 melanoma
UO-31 renal = tested on: UO-31 renal
HCT-15 colon = tested on: HCT-15 colon
SNB-78 CNS = tested on: SNB-78 CNS
XF 498 CNS = tested on: XF 498 CNS

In the case of `COc1ccc(CN2C(=O)[C@@H]3Cc4c(OC)c(C)c(OC)c(OC)c4[C@H](/C2=C\c2cc(OC)c(OC)c(C)c2OC)N3C(=O)OC(C)C)cc1`, the TGI (786-0 renal) is reported as > 100 µM, the TGI (A498 renal) is reported as > 100 µM and the TGI (A549 NSCLC) is reported as > 100 µM. The TGI (ACHN renal) was > 100 µM, the TGI (CAKI-1 renal) was > 100 µM and the TGI (CCRF-CEM leukemia) was > 100 µM. The TGI (COLO 205 colon) was > 100 µM, the TGI (DLD-1 colon) was > 100 µM and the TGI (DMS 114 small cell lung) was > 100 µM. The TGI (DMS 273 small cell lung) was > 100 µM, the TGI (EKVX NSCLC) was > 100 µM and the TGI (HCC-2998 colon) was > 100 µM. The TGI (HCT-116 colon) was > 100 µM, the TGI (HL-60(TB) leukemia) was > 100 µM and the TGI (HOP-18 NSCLC) was > 100 µM. For the same compound, the TGI (HOP-62 NSCLC) was > 100 µM, the TGI (HOP-92 NSCLC) was > 100 µM and the TGI (HT29 colon) was > 100 µM. For the same compound, the TGI (IGROV1 ovarian) was > 100 µM, the TGI (K-562 leukemia) was > 100 µM and the TGI (KM12 colon) was > 100 µM. The TGI (KM20L2 colon) was > 100 µM, the TGI (LOX IMVI melanoma) was > 100 µM and the TGI (LXFL 529 NSCLC) was > 100 µM. The TGI (M14 melanoma) was > 100 µM, the TGI (M19-MEL melanoma) was > 100 µM and the TGI (MALME-3M melanoma) was > 100 µM. The TGI (MOLT-4 leukemia) was > 100 µM, the TGI (NCI-H226 lung) was 34.1 µM and the TGI (NCI-H23 lung) was > 100 µM. The TGI (NCI-H460 lung) was > 100 µM, the TGI (NCI-H522 lung) was > 100 µM and the TGI (OVCAR-3 ovarian) was > 100 µM. The TGI (OVCAR-4 ovarian) was > 100 µM, the TGI (OVCAR-5 ovarian) was > 100 µM and the TGI (OVCAR-8 ovarian) was > 100 µM. For the same compound, the TGI (RPMI-8226 leukemia) was > 100 µM, the TGI (RXF 393 renal) was > 100 µM and the TGI (RXF-631 renal) was > 100 µM. The TGI (SF-268 CNS) was > 100 µM, the TGI (SF-295 CNS) was > 100 µM and the TGI (SF-539 CNS) was > 100 µM. The TGI (SK-MEL-2 melanoma) was > 100 µM, the TGI (SK-MEL-28 melanoma) was > 100 µM and the TGI (SK-MEL-5 melanoma) was > 100 µM. For the same compound, the TGI (SK-OV-3 ovarian) was > 100 µM, the TGI (SN12C renal) was > 100 µM and the TGI (SNB-19 CNS) was > 100 µM. For the same compound, the TGI (SNB-75 CNS) was > 100 µM, the TGI (SR leukemia) was > 100 µM and the TGI (SW-620 colon) was > 100 µM. For the same compound, the TGI (TK-10 renal) was > 100 µM, the TGI (U251 CNS) was > 100 µM and the TGI (UACC-257 melanoma) was > 100 µM. The TGI (UACC-62 melanoma) was > 100 µM and the TGI (UO-31 renal) was > 100 µM.
`C/C=C/C(=O)Oc1cccc2cccnc12` was tested, and the TGI (786-0 renal) was > 100 µM, the TGI (A549 NSCLC) was > 100 µM and the TGI (ACHN renal) was > 100 µM. It also gave a TGI (CAKI-1 renal) of 93.8 µM, a TGI (CCRF-CEM leukemia) of 31.7 µM and a TGI (COLO 205 colon) of 35.9 µM. The TGI (DLD-1 colon) was 21 µM, the TGI (DMS 114 small cell lung) was 16.8 µM and the TGI (DMS 273 small cell lung) was 46.9 µM. The TGI (EKVX NSCLC) was > 81.3 µM, the TGI (HCC-2998 colon) was 46.1 µM and the TGI (HCT-116 colon) was 18.1 µM. For the same compound, the TGI (HCT-15 colon) was 33.4 µM, the TGI (HL-60(TB) leukemia) was > 33.8 µM and the TGI (HOP-18 NSCLC) was > 100 µM. The TGI (HOP-62 NSCLC) was > 100 µM, the TGI (HOP-92 NSCLC) was 57.9 µM and the TGI (HT29 colon) was 58 µM. For the same compound, the TGI (IGROV1 ovarian) was > 94.7 µM, the TGI (K-562 leukemia) was > 100 µM and the TGI (KM12 colon) was 42.4 µM. The TGI (KM20L2 colon) was > 35.5 µM, the TGI (LOX IMVI melanoma) was > 84.6 µM and the TGI (LXFL 529 NSCLC) was > 100 µM. It also gave a TGI (M14 melanoma) of 12 µM, a TGI (M19-MEL melanoma) of 38.6 µM and a TGI (MALME-3M melanoma) of 8.94 µM. The TGI (MOLT-4 leukemia) was > 100 µM, the TGI (NCI-H226 lung) was 68.6 µM and the TGI (NCI-H23 lung) was 29 µM. For the same compound, the TGI (NCI-H460 lung) was 23 µM, the TGI (NCI-H522 lung) was 5.15 µM and the TGI (OVCAR-3 ovarian) was > 73.6 µM. The TGI (OVCAR-4 ovarian) was 22 µM, the TGI (OVCAR-5 ovarian) was > 100 µM and the TGI (OVCAR-8 ovarian) was 54.3 µM. For the same compound, the TGI (RPMI-8226 leukemia) was > 96.1 µM, the TGI (RXF 393 renal) was 41.1 µM and the TGI (SF-268 CNS) was 14.5 µM. The TGI (SF-295 CNS) was > 100 µM, the TGI (SF-539 CNS) was 40.1 µM and the TGI (SK-MEL-28 melanoma) was 61.6 µM. The TGI (SK-MEL-5 melanoma) was 51 µM, the TGI (SK-OV-3 ovarian) was > 100 µM and the TGI (SN12C renal) was > 78.2 µM. For the same compound, the TGI (SNB-19 CNS) was > 100 µM, the TGI (SNB-75 CNS) was > 75.6 µM and the TGI (SNB-78 CNS) was > 100 µM. For the same compound, the TGI (SR leukemia) was > 100 µM, the TGI (SW-620 colon) was 38.5 µM and the TGI (TK-10 renal) was > 100 µM. The TGI (U251 CNS) was 12.9 µM, the TGI (UACC-257 melanoma) was 40.9 µM and the TGI (UACC-62 melanoma) was > 39.5 µM. The TGI (UO-31 renal) was > 84.7 µM and the TGI (XF 498 CNS) was 55.2 µM.
